Test results from the supplement of paper PMC10307832.

Tests used:
Experiment in all cases: relative viability (nuclei count vs DMSO), 5 days (fraction); higher = more cells survive
[1] = test system: LOU-NH91
Outline: (§1)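 Relative viability divides the nuclei count in treated wells by that in vehicle wells. Lung cancer cell lines were seeded in 1536-well plates, dosed by pin tool the next day, and fixed and stained after 5 days in one step with final 0.05% Triton X-100, 1% formaldehyde and 1 ug/ml Hoechst. Dosing was a single drug or a fixed anchor-drug dose plus five library-drug doses (not always all listed) in √10 steps, and values are medians of duplicate plates imaged at 4×.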

[2] = test system: 201T
Outline: as §1

[3] = test system: LK-2
Outline: as §1

[4] = test system: PC-3 [JPC-3]
Outline: as §1

[5] = test system: COR-L23
Outline: as §1

[6] = test system: NCI-H23
Outline: as §1

[7] = test system: NCI-H1793
Outline: as §1

[8] = test system: LCLC-97TM1
Outline: as §1

[9] = test system: NCI-H1651
Outline: as §1

[10] = test system: UMC-11
Outline: as §1

[11] = test system: NCI-H838
Outline: as §1

[12] = test system: NCI-H2347
Outline: as §1

[13] = test system: HARA
Outline: as §1

[14] = test system: RERF-LC-KJ
Outline: as §1

[15] = test system: NCI-H520
Outline: as §1

[16] = test system: NCI-H647
Outline: as §1

[17] = test system: NCI-H2405
Outline: as §1

[18] = test system: LXF-289
Outline: as §1

[19] = test system: HCC-78
Outline: as §1

[20] = test system: A-427
Outline: as §1

[21] = test system: NCI-H1650
Outline: as §1

Structure (SMILES): Cc1csc(=NC2CCCCC2)n1/N=C/c1ccc(O)c(O)c1O [MIM1] + CC1(C)CCC(c2ccc(Cl)cc2)=C(CN2CCN(c3ccc(C(=O)NS(=O)(=O)c4ccc(N[C@H](CCN5CCOCC5)CSc5ccccc5)c(S(=O)(=O)C(F)(F)F)c4)cc3)CC2)C1 [Navitoclax] (partner 0.5 µM)
- relative viability ([1]; first compound 0.2 µM): 0.588
- relative viability ([1]; first compound 0.6325 µM): 0.69
- relative viability ([1]; first compound 2 µM): 0.532
- relative viability ([1]; first compound 6.325 µM): 0.492
- relative viability ([1]; first compound 20 µM): 0.313
- relative viability ([2]; first compound 0.2 µM): 1.2
- relative viability ([2]; first compound 0.6325 µM): 1.21
- relative viability ([2]; first compound 2 µM): 1.24
- relative viability ([2]; first compound 6.325 µM): 1.19
- relative viability ([2]; first compound 20 µM): 1.26
- relative viability ([3]; first compound 0.2 µM): 0.924
- relative viability ([3]; first compound 0.6325 µM): 0.847
- relative viability ([3]; first compound 2 µM): 0.657
- relative viability ([3]; first compound 6.325 µM): 1.09
- relative viability ([3]; first compound 20 µM): 0.209
- relative viability ([4]; first compound 0.2 µM): 0.821
- relative viability ([4]; first compound 0.6325 µM): 0.682
- relative viability ([4]; first compound 2 µM): 0.897
- relative viability ([4]; first compound 6.325 µM): 0.696
- relative viability ([4]; first compound 20 µM): 0.531
- relative viability ([5]; first compound 0.2 µM): 0.966
- relative viability ([5]; first compound 0.6325 µM): 1.08
- relative viability ([5]; first compound 2 µM): 0.997
- relative viability ([5]; first compound 6.325 µM): 0.774
- relative viability ([5]; first compound 20 µM): 0.515
- relative viability ([6]; first compound 0.2 µM): 0.631
- relative viability ([6]; first compound 2 µM): 0.632
- relative viability ([6]; first compound 6.325 µM): 0.934
- relative viability ([6]; first compound 20 µM): 0.242
- relative viability ([7]; first compound 0.2 µM): 0.438
- relative viability ([7]; first compound 0.6325 µM): 0.546
- relative viability ([7]; first compound 2 µM): 0.436
- relative viability ([7]; first compound 6.325 µM): 0.475
- relative viability ([7]; first compound 20 µM): 0.47
- relative viability ([8]; first compound 0.2 µM): 0.567
- relative viability ([8]; first compound 0.6325 µM): 0.398
- relative viability ([8]; first compound 2 µM): 0.397
- relative viability ([8]; first compound 6.325 µM): 0.48
- relative viability ([8]; first compound 20 µM): 0.203
- relative viability ([9]; first compound 0.2 µM): 1.09
- relative viability ([9]; first compound 0.6325 µM): 1.1
- relative viability ([9]; first compound 2 µM): 1.03
- relative viability ([9]; first compound 6.325 µM): 0.875
- relative viability ([9]; first compound 20 µM): 0.869
- relative viability ([10]; first compound 0.2 µM): 0.32
- relative viability ([10]; first compound 0.6325 µM): 0.298
- relative viability ([10]; first compound 2 µM): 0.36
- relative viability ([10]; first compound 6.325 µM): 0.208
- relative viability ([10]; first compound 20 µM): 0.145
- relative viability ([11]; first compound 0.2 µM): 1.12
- relative viability ([11]; first compound 0.6325 µM): 1.3
- relative viability ([11]; first compound 2 µM): 0.994
- relative viability ([11]; first compound 6.325 µM): 0.902
- relative viability ([11]; first compound 20 µM): 0.501
- relative viability ([12]; first compound 0.2 µM): 0.661
- relative viability ([12]; first compound 0.6325 µM): 0.776
- relative viability ([12]; first compound 2 µM): 0.812
- relative viability ([12]; first compound 6.325 µM): 0.544
- relative viability ([12]; first compound 20 µM): 0.408
- relative viability ([13]; first compound 0.2 µM): 1.13
- relative viability ([13]; first compound 0.6325 µM): 1.15
- relative viability ([13]; first compound 2 µM): 1.19
- relative viability ([13]; first compound 6.325 µM): 1.13
- relative viability ([13]; first compound 20 µM): 0.23
- relative viability ([14]; first compound 0.2 µM): 0.848
- relative viability ([14]; first compound 0.6325 µM): 0.725
- relative viability ([14]; first compound 2 µM): 0.534
- relative viability ([14]; first compound 6.325 µM): 0.568
- relative viability ([14]; first compound 20 µM): 0.245
- relative viability ([15]; first compound 0.2 µM): 1.08
- relative viability ([15]; first compound 0.6325 µM): 1.06
- relative viability ([15]; first compound 2 µM): 1.06
- relative viability ([15]; first compound 6.325 µM): 0.832
- relative viability ([15]; first compound 20 µM): 0.517
- relative viability ([16]; first compound 0.2 µM): 1.2
- relative viability ([16]; first compound 0.6325 µM): 0.989
- relative viability ([16]; first compound 2 µM): 0.742
- relative viability ([16]; first compound 6.325 µM): 0.809
- relative viability ([16]; first compound 20 µM): 0.617
- relative viability ([17]; first compound 0.2 µM): 0.946
- relative viability ([17]; first compound 0.6325 µM): 0.999
- relative viability ([17]; first compound 2 µM): 0.884
- relative viability ([17]; first compound 6.325 µM): 0.798
- relative viability ([17]; first compound 20 µM): 0.35
- relative viability ([18]; first compound 0.2 µM): 0.921
- relative viability ([18]; first compound 0.6325 µM): 0.939
- relative viability ([18]; first compound 2 µM): 0.921
- relative viability ([18]; first compound 6.325 µM): 0.768
- relative viability ([18]; first compound 20 µM): 0.487
- relative viability ([19]; first compound 0.2 µM): 0.899
- relative viability ([19]; first compound 0.6325 µM): 0.731
- relative viability ([19]; first compound 2 µM): 0.668
- relative viability ([19]; first compound 6.325 µM): 0.562
- relative viability ([19]; first compound 20 µM): 0.739
- relative viability ([20]; first compound 0.2 µM): 0.972
- relative viability ([20]; first compound 0.6325 µM): 1.02
- relative viability ([20]; first compound 2 µM): 0.981
- relative viability ([20]; first compound 6.325 µM): 0.986
- relative viability ([20]; first compound 20 µM): 0.555
- relative viability ([21]; first compound 0.2 µM): 1.13
- relative viability ([21]; first compound 0.6325 µM): 1.18
- relative viability ([21]; first compound 2 µM): 0.693
- relative viability ([21]; first compound 6.325 µM): 0.452
- relative viability ([21]; first compound 20 µM): 0.202
